We go through one compound from paper PMC10812467, “Peroxidasin Inhibition by Phloroglucinol and Other Peroxidase Inhibitors” (Antioxidants, 2023).

In general, inhibition refers to the drop in the measured response relative to a control, in per cent. As usually defined, the IC50 is the point on the concentration scale where inhibition reaches its midpoint.

For assay [1], the target named is T1, Human peroxidasin (PXDN) (Homo sapiens, UniProt Q92626).
T1 construct: the four immunoglobulin domains and the peroxidase domain (amino acid residue 246-1314); made in house; host or cells: transient transfection
T1 sequence (Q92626 246-1314): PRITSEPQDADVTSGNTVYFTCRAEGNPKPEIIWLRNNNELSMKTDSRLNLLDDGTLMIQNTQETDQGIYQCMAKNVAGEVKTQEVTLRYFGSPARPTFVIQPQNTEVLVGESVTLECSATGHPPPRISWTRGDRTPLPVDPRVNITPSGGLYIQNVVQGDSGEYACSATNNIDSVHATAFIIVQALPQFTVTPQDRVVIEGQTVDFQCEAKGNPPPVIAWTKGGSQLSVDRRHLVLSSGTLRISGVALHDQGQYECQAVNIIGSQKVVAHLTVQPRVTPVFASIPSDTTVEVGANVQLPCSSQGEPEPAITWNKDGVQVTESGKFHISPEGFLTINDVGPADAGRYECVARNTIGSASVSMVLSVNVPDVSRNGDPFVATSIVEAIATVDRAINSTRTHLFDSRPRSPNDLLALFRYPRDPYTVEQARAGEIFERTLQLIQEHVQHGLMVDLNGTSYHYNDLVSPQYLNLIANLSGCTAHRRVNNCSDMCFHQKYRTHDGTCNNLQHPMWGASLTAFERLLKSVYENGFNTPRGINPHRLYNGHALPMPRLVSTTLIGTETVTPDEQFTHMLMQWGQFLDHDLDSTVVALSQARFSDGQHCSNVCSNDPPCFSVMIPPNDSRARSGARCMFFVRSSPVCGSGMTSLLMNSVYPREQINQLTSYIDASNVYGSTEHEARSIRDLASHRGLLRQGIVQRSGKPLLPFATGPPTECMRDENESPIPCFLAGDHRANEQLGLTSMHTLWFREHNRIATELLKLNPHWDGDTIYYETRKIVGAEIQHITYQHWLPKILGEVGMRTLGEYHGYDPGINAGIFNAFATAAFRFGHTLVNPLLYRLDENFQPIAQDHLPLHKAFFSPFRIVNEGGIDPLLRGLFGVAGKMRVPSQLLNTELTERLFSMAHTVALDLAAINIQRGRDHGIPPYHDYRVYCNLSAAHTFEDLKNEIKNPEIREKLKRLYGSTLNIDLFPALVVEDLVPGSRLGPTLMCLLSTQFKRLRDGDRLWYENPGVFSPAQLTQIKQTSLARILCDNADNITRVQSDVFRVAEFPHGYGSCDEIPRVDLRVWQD
In words: Dansylglycine halogenation (bromination) activity assay. The class given is biochemical. Conditions: 24 μM inhibitor, 50 nM PXDN, 50 μM DG, 100 mM bromide, 200 μM hydrogen peroxide, pH 7.4. The protocol:
(§1) A previously characterized truncated peroxidasin variant, formerly annotated as hsPxd01-con4 [46], consisting of the four immunoglobulin domains and the peroxidase domain (amino acid residue 246-1314; numbering refers to full length PXDN including the signal peptide as shown in Uniprot Q92626), was used for all experiments using PXDN protein. Cloning, transient transfection, expression and the quality control of the purified recombinant PXDN was performed routinely, as described previously. Molar concentrations are per heme and were determined using an extinction coefficient of 147,500 M^−1 cm^−1 for the heme Soret peak at 412 nm. For the conversion to mg, a molar mass of 140,000 g mol^−1 was used and calculated from the molar concentration per heme. For simplicity we will refer to this variant as peroxidasin (PXDN) throughout the manuscript.
Dansylglycine (DG) was made up fresh every day and kept in the dark at room temperature. […] We mixed 50 nM PXDN in 100 mM phosphate buffer pH 7.4 with 50 μM DG and 100 mM bromide, before the reaction was started by adding 200 μM of hydrogen peroxide to a final volume of 1.5 mL. Loss of fluorescence was monitored for 60 s using a F-7000 Hitachi (Methrom-Inula, Vienna) fluorometer (λex 340 nm, λem 550 nm). […] The loss of fluorescence was fitted linearly to determine the rate of reaction (min^−1). The effect of the inhibitors was expressed as % inhibition, relative to the rate of the halogenation activity of PXDN without an inhibitor. IC50 values were determined by varying inhibitor concentrations (0–48 μM).

For assay [2], the system named is LPO. Set-up: method as in PMID 8068644. Conditions: cited from earlier work.
For assay [3], the target named is T1, Human peroxidasin (PXDN). In words: Amplex oxidation activity assay in the absence of bromide. The assay is classed as biochemical. The protocol:
as §1
(§2) 100 µL of 50 μM Amplex™ UltraRed and 20 μM hydrogen peroxide in 50 mM phosphate buffer pH 7.4 and the respective inhibitor at twice of its final concentration was added to a 96-well plate. […] The plate was incubated in the dark for 15 min at 37 °C before the fluorescence of resorufin, the resulting Amplex oxidation product, was detected using a SpectraMax iD3 fluorescent plate reader from Molecular Devices LLC, San Jose, CA 95134 (λex 544 nm, λem 590 nm, end point measurement). The same assay was also performed with 50 mM bromide present. To determine IC50 values, Amplex oxidation (measured as the end point as described above) was plotted versus the concentration of the inhibitor and expressed as % inhibition.

For assay [4], the target named is T1, Human peroxidasin (PXDN). In words: Amplex oxidation activity assay in the presence of bromide. The assay is classed as biochemical. The protocol: as §1, §2
For assay [5], the target named is T2, PXDN Compound I (Homo sapiens, UniProt Q92626).
T2 construct: the four immunoglobulin domains and the peroxidase domain (amino acid residue 246-1314); made in house; host or cells: transient transfection
T2 sequence (Q92626 246-1314): T1 sequence (Q92626 246-1314)
Put plainly: Sequential stopped-flow spectroscopy of PXDN Compound I with inhibitors. The class given is biochemical. Conditions: 1 μM PXDN Compound I, pH 7.4, 25 °C. On the procedure: Pre-steady-state spectra were recorded with the stopped-flow apparatus SX.18MV (Applied Photophysics Ltd, Leatherhead, UK) connected to a diode array detector (DAD), with the first spectrum recorded 14 ms after the mixing of the reactants. Due to the inherent instability of Compound I of PXDN, the sequential mixing mode was used to generate Compound I. Equal volumes of 4 μM PXDN and 4 μM hydrogen peroxide were mixed in the aging loop. […] Interconversion of redox intermediates of PXDN was monitored for 60 s. […] All reactions were performed in 100 mM phosphate buffer, pH 7.4, and at 25 °C. Time traces (410 nm to monitor Compound I and ferric PXDN, 432 nm for Compound II and 550 and 590 nm to monitor Compound III [46]) were extracted from the time-resolved spectra.

Assay [6] relates to TPO. More on the design: method as in PMID 8068644. Conditions: cited from earlier work.

Regarding `Oc1cc(O)cc(O)c1` [Phloroglucinol, 1,3,5-Trihydroxybenzene], the inhibition at 24 µM in assay [1] was 97 to 99%. Besides, the “inhibition of LPO” value in assay [2] is “potently inhibits”. Moreover, the figures for the IC50 in assay [3] and in assay [4] were 137 nM and 948 nM, respectively. Besides, the inhibition at 20 µM in assay [3] (20 μM inhibitor, without bromide) is more than 95%; in assay [4] (20 μM inhibitor, 50 mM bromide) it was more than 95%. Moreover, in assay [5], the “Mechanism or Reaction Steady and Pre-Steady State Spectrophotometry” value is on record as “Adduct formation or tight ligand binding”. Besides, the “inhibition of TPO” value in assay [6] was “potently inhibits”.
